Test: recombinant barcode read abundance after kanamycin selection (control-corrected) (log10(CPM+1)); higher = more efficient recombination; sequences stand for … in AGTGCAGAGAAAATCGGCCAGTTTTCTCTGCCTGCAGTCCGCATGCCGT…AGATTTATGCAGCGGACTGCCTTTCTCCCAAAGTGATAAACCGGACAGTATCATGGACCGGTTTTCCCGGTAATCCGTATTTGCAAGGTTGGTTTCACT; site = the 11-nt target
Outline: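 Pooled E. coli screen pairing targets with IS621 bridge RNA target-binding loops. Each oligo (promoter, target, barcode, J23119-driven first 104 bridge RNA bases) was Gibson-cloned into a vector with the remaining 73 bp and T7-inducible recombinase, then co-electroporated with a donor plasmid. Two replicates each were plated on chloramphenicol/ampicillin LB agar (control) or chloramphenicol/ampicillin/kanamycin with 0.1 mM IPTG. Recombination efficiency is recombinant-junction barcode counts as CPM, averaged, control-corrected, reported as log10(CPM+1).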
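Further: IS621 recombinase and bridge RNA in Escherichia coli cells.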

Sequence | recombinant barcode read abundance (log10)
AGTTGTCCTTGGGTTCTAACCTGTTGCTT (site AGTTGTCCTAG) | 0.0387
AGTTGTCCTTGGGTTCTAACCTGTTGCTT (site AGTTGTCCTAT) | 0.0416
AGTTTCACTTGGGTTCTAACCTGTTGCCT (site AGTTACACTAG) | 0.11
AGTTTCACTTGGGTTCTAACCTGTTGCCT (site AGTTCCACTAG) | 0.0621
AGTTTCACTTGGGTTCTAACCTGTTGCCT (site AGTTGCACTAG) | 0.0233
AGTTTCACTTGGGTTCTAACCTGTTGCCT (site AGTTTCACTAG) | 0.0755
ATAAAGACTTGGGTTCTAACCTGTTGCCT (site ATAAAGACTAG) | 1.96
ATAAAGACTTGGGTTCTAACCTGTTGCCT (site ATCAAGACTAG) | 0.181
ATAAAGACTTGGGTTCTAACCTGTTGCCT (site ATGAAGACTAG) | 0.212
ATAAAGACTTGGGTTCTAACCTGTTGCCT (site ATTAAGACTAG) | 0.586
ATAAATGCTTGGGTTCTAACCTGTTGCCT (site ATAAATGCTAG) | 1.34
ATAAATGCTTGGGTTCTAACCTGTTGCCT (site ATAAGGGCTAG) | 0.0428
ATAACAGCTTGGGTTCTAACCTGTTGCCT (site ATAAAAGCTAG) | 0.224
ATAACAGCTTGGGTTCTAACCTGTTGCCT (site ATAACAGCTAG) | 1.43
ATAACAGCTTGGGTTCTAACCTGTTGCCT (site ATAAGAGCTAG) | 0.279
ATAACAGCTTGGGTTCTAACCTGTTGCCT (site ATAATAGCTAG) | 0.0968
ATAACGGCTTGGGTTCTAACCTGTTGCCT (site ATAACGGCTAG) | 0.434
ATAACGGCTTGGGTTCTAACCTGTTGCCT (site GACGGACCTTA) | 0.0648

Sequence | recombinant barcode read abundance (log10)
ATAAGTGCTTGGGTTCTAACCTGTTGCCA (site ATAAGTGCTTG) | 1.15
ATAAGTGCTTGGGTTCTAACCTGTTGCCA (site GTGAGTGCTTG) | 0.0783
ATAATAGCTTGGGTTCTAACCTGTTGCAT (site ATAATAGCTAT) | 2.02
ATAATAGCTTGGGTTCTAACCTGTTGCAT (site GTAATAGCTAT) | 0.0687
ATACGGACTTGGGTTCTAACCTGTTGCTA (site ATAAGGACTTA) | 0.0991
ATACGGACTTGGGTTCTAACCTGTTGCTA (site ATACGGACTTA) | 2.04
ATACGGACTTGGGTTCTAACCTGTTGCTA (site ATAGGGACTTA) | 0.186
ATACGGACTTGGGTTCTAACCTGTTGCTA (site ATATGGACTTA) | 0.0991
ATACTCTCTTGGGTTCTAACCTGTTGCCT (site AGACTCTCTAG) | 0
ATACTCTCTTGGGTTCTAACCTGTTGCCT (site ATACTCTCTAG) | 2.43
ATAGAGTCTTGGGTTCTAACCTGTTGCCG (site ATAGAGTCTCG) | 1.95
ATAGAGTCTTGGGTTCTAACCTGTTGCCG (site GCTCCTCCTAT) | 0.173
ATAGGTACTTGGGTTCTAACCTGTTGCTT (site ATAGGTACTAA) | 1.65
ATAGGTACTTGGGTTCTAACCTGTTGCTT (site CTAGGTACTAA) | 0.534
ATAGGTCCTTGGGTTCTAACCTGTTGCTG (site ATAGGTCCTCA) | 2.91
ATAGGTCCTTGGGTTCTAACCTGTTGCTG (site ATGGGTCCTCG) | 0.0247
ATATGAGCTTGGGTTCTAACCTGTTGCCA (site ATATGAGCTTG) | 0.884
ATATGAGCTTGGGTTCTAACCTGTTGCCA (site TTATGAGCTCG) | 0.0938

From the supplement of paper PMC11208160
